In patent US20100111965A1, “COMBINATION THERAPY” (FUSION ANTIBODIES LIMITED, priority 2006, published 2010):

Columns and labels:
[1] = system: HCT116 +/+; assay: Western blot of AREG protein in HCT116 lysates after chemotherapy; assay type: cell-based, human; settings: HCT116 p53 wild type lysates; 48 hour treatment
Experimental: FIG. 2 illustrates western blot analysis of AREG and gamma tubulin protein expression in HCT116 +/+ and RKO +/+ with/without a 48 hour CPT11 or 5-Fu treatment; HCT 116, RKO, HT 29 and H630 are human colorectal carcinoma cell lines. After different time exposure to chemotherapy the cells were harvested, and washed in 1×PBS. The cell pellet was then lysed in a suitable amount of 1×RIPA lysis buffer (150 mM NaCl, 10 mM Tris at pH 7.2, 0.1% SDS, 1.0% triton X-100 and 5 mM.EDTA) supplemented with protease inhibitors. The cell lysate was briefly vortexed, incubated on ice for 10 min and then centrifuged at 12,000 rpm to remove cell debris. Following centrifugation, the lysate supernatant was removed to a fresh eppendorf tube. Protein concentrations were assayed using the BCA Protein Assay (Pierce) according to the manufacturer's instructions. The absorbance of each sample at 620 nm was assayed using a microplate reader. A standard BSA curve was plotted for each experiment and the protein concentration of each sample calculated. To each sample an equal volume of 5× Western sample buffer and 10% of the final volume of β-mercaptoethanol (Sigma) was added. The samples were denatured at 95° C. for 5 minutes and placed on ice prior to loading onto SDS polyacrylamide gel (SDS PAGE). […] Protein bands were detected by exposure to autoradiograph which was subsequently developed. […]

[2] = system: HCT116 cells; assay: MTT assay, HCT116 cell proliferation; assay type: cell-based, human; settings: siRNA 10 nM, CPT-11 3.5 μM, 48 hr, compared to untreated, mock, control siRNA
Experimental: FIG. 8 illustrates HCT116 cell proliferation following AREG/HB-EGF silencing by siRNA and/or Chemotherapy treatment. Cells were transfected with AREG siRNA (10 nM), HB-EGF siRNA (10 nM) or a control siRNA (10 nM). […] Cell proliferation was analysed by MTT assay 48 hr after transfection/chemotherapy
FIG. 28 illustrates HCT116 cell proliferation after treatment with AREG antibody. Cell proliferation was analysed by MTT assay 48 hr after treatment.
FIG. 30 illustrates HCT116 cell proliferation after treatment with AREG antibody. Cell proliferation was analysed by MTT assay 48 hr after treatment.
FIG. 31 illustrates HCT116 cell proliferation after treatment with AREG antibody. Cell proliferation was analysed by MTT assay 48 hr after treatment
FIG. 33 illustrates HCT116 cell proliferation following HB-EGF silencing by siRNA and/or treatment with Anti AREG antibodies (6E11 1E92D8 & 6E11 1E9 106). Cells were transfected with HB-EGF siRNA (50 nM) or a control siRNA (50 nM). Cell proliferation was analysed by MTT assay 72 hr after transfection. […]
Cell viability was assessed by 3-(4,5-dimethylthiazol-2-yl)-2,5-diphenyltetrazolium bromide (MTT, Sigma) assay (Mosmann, T. 1983. J. Immunol. Methods 65:55-63). […] Cell viability was determined by reading the absorbance of each well at 570 nm using a microplate reader (Tecan Sunrise, Biorad, UK).

CCc1c2c(nc3ccc(OC(=O)N4CCC(N5CCCCC5)CC4)cc13)-c1cc3c(c(=O)n1C2)COC(=O)[C@]3(O)CC [CPT-11, irinotecan]
AREG protein expression (western blot) [1]: Enhanced AREG expression
effect on cell viability (MTT) [2]: no significant effect
